Source: patent US9586962B2, “Disubstituted octahydropyrrolo [3,4-C] pyrroles as orexin receptor modulators” (Janssen Pharmaceutica NV, priority 2011, dated 2017)

Molecular target: human orexin 2 receptor (Homo sapiens (Human), UniProt O43614)
Assay: Human orexin 2 receptor radioligand binding ([3H]EMPA competition, HEK293 cells)
Details: HEK293 cells expressing human orexin-2 receptor, read-out: OR 2 Ki

Sequence of human orexin 2 receptor (O43614 whole entry): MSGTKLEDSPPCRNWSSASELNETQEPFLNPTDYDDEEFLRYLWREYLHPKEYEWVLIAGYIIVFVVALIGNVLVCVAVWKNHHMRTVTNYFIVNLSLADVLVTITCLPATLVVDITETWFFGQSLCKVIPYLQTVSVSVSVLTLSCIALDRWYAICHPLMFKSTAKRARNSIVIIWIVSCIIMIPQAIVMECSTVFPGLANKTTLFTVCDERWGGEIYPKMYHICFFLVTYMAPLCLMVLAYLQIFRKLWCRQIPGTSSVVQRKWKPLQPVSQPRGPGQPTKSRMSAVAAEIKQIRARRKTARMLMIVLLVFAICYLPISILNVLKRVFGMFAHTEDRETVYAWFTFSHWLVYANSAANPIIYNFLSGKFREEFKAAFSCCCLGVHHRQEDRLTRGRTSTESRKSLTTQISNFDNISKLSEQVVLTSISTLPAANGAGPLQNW

Ki [nM]	Structure (SMILES)
23	Cc1cc(C)nc(N2CC3CN(C(=O)c4cccc(F)c4-c4nnc[nH]4)CC3C2)n1 (stereo not drawn) [Example 432, 2-(4,6-Dimethylpyrimidin-2-yl)-5-{[3-fluoro-2-(1H-1,2,4-triazol-5-yl)phenyl]carbonyl}octahydropyrrolo[3,4-c]pyrrole]
24	COc1ccc(C(=O)N2CC3CN(c4nc(C)cc(CO)n4)CC3C2)c(-n2nccn2)c1 (stereo not drawn) [Example 435, {2-[5-{[4-Methoxy-2-(2H-1,2,3-triazol-2-yl)phenyl]carbonyl}hexahydropyrrolo[3,4-c]pyrrol-2(1H)-yl]-6-methylpyrimidin-4-yl}methanol]
270	Cc1cc(C)nc(N2CC3CN(C(=O)c4c(F)cccc4-c4nnc[nH]4)CC3C2)n1 (stereo not drawn) [Example 437, 2-(4,6-Dimethylpyrimidin-2-yl)-5-{[2-fluoro-6-(1H-1,2,4-triazol-5-yl)phenyl]carbonyl}octahydropyrrolo[3,4-c]pyrrole]
10000	Cc1cc(C)nc(N2CC3CN(C(=O)c4nc(C)ccc4-n4ccnn4)CC3C2)n1 (stereo not drawn) [Example 439, 2-(4,6-Dimethylpyrimidin-2-yl)-5-{[6-methyl-3-(1H-1,2,3-triazol-1-yl)pyridin-2-yl]carbonyl}octahydropyrrolo[3,4-c]pyrrole]
26	Cc1nc(N2CC3CN(C(=O)c4ncc(Cl)cc4-n4nccn4)CC3C2)nc(C)c1C (stereo not drawn) [Example 442, 2-{[5-Chloro-3-(2H-1,2,3-triazol-2-yl)pyridin-2-yl]carbonyl}-5-(4,5,6-trimethylpyrimidin-2-yl)octahydropyrrolo[3,4-c]pyrrole]
20	COc1cnc(C(=O)N2CC3CN(c4nc(C)c(C)c(C)n4)CC3C2)c(-n2nccn2)c1 (stereo not drawn) [Example 444, 2-{[5-Methoxy-3-(2H-1,2,3-triazol-2-yl)pyridin-2-yl]carbonyl}-5-(4,5,6-trimethylpyrimidin-2-yl)octahydropyrrolo[3,4-c]pyrrole]
72	Cc1cc(C)nc(N2CC3CN(C(=O)c4ccc(OC(F)F)cc4-n4nccn4)CC3C2)n1 (stereo not drawn) [Example 446, 2-{[4-(Difluoromethoxy)-2-(2H-1,2,3-triazol-2-yl)phenyl]carbonyl}-5-(4,6-dimethylpyrimidin-2-yl)octahydropyrrolo[3,4-c]pyrrole]
4000	Cc1cc(C)nc(N2CC3CN(C(=O)c4cccc5c4OCC5)CC3C2)n1 (stereo not drawn) [Example 463, 2-(2,3-Dihydro-1-benzofuran-7-ylcarbonyl)-5-(4,6-dimethylpyrimidin-2-yl)octahydropyrrolo[3,4-c]pyrrole]
33	COc1cccc(-n2nccn2)c1C(=O)N1CC2CN(c3nc(C)cc(C)n3)CC2C1 (stereo not drawn) [Example 465, 2-(4,6-Dimethylpyrimidin-2-yl)-5-{[2-methoxy-6-(2H-1,2,3-triazol-2-yl)phenyl]carbonyl}octahydropyrrolo[3,4-c]pyrrole]
15	Cc1cc(C)nc(N2CC3CN(C(=O)c4c(F)cccc4-c4nccs4)CC3C2)n1 (stereo not drawn) [Example 476, 2-(4,6-Dimethylpyrimidin-2-yl)-5-{[2-fluoro-6-(1,3-thiazol-2-yl)phenyl]carbonyl}octahydropyrrolo[3,4-c]pyrrole]
19	Cc1cc(C)nc(N2CC3CN(C(=O)c4c(F)cccc4-c4ncc(C)s4)CC3C2)n1 (stereo not drawn) [Example 477, 2-(4,6-Dimethylpyrimidin-2-yl)-5-{[2-fluoro-6-(5-methyl-1,3-thiazol-2-yl)phenyl]carbonyl}octahydropyrrolo[3,4-c]pyrrole]
49	Cc1cc(C)nc(N2CC3CN(C(=O)c4c(F)cccc4-c4[nH]ncc4C(F)(F)F)CC3C2)n1 (stereo not drawn) [Example 478, 2-(4,6-Dimethylpyrimidin-2-yl)-5-({2-fluoro-6-[4-(trifluoromethyl)-1H-pyrazol-5-yl]phenyl}carbonyl)octahydropyrrolo[3,4-c]pyrrole]
524	COc1ncc(-c2cccc(F)c2C(=O)N2CC3CN(c4nc(C)cc(C)n4)CC3C2)s1 (stereo not drawn) [Example 479, 2-(4,6-Dimethylpyrimidin-2-yl)-5-{[2-fluoro-6-(2-methoxy-1,3-thiazol-5-yl)phenyl]carbonyl}octahydropyrrolo[3,4-c]pyrrole]
3810	Cc1cc(C)nc(N2CC3CN(C(=O)c4c(F)cccc4C4=CC(=O)OC4)CC3C2)n1 (stereo not drawn) [Example 480, 4-(2-{[5-(4,6-Dimethylpyrimidin-2-yl)hexahydropyrrolo[3,4-c]pyrrol-2(1H)-yl]carbonyl}-3-fluorophenyl)furan-2(5H)-one]

More lines, now with the values behind:

Structure (SMILES)	Ki [nM]
Cc1ccc(-c2ncc(C)o2)c(C(=O)N2CC3CN(c4cc(N(C)C)nc(C)n4)CC3C2)n1 (stereo not drawn) [Example 429, N,N,2-Trimethyl-6-[5-{[6-methyl-3-(5-methyl-1,3-oxazol-2-yl)pyridin-2-yl]carbonyl}hexahydropyrrolo[3,4-c]pyrrol-2(1H)-yl]pyrimidin-4-amine]	764
CCCOc1ccc(C)cc1C(=O)N1CC2CN(c3cc(N(C)C)nc(C)n3)CC2C1 (stereo not drawn) [Example 430, N,N,2-Trimethyl-6-{5-[(5-methyl-2-propoxyphenyl)carbonyl]hexahydropyrrolo[3,4-c]pyrrol-2(1H)-yl}pyrimidin-4-amine]	270
[2H]c1c(C([2H])([2H])[2H])nc(N2CC3CN(C(=O)c4cccc(F)c4-c4ncccn4)CC3C2)nc1C([2H])([2H])[2H] (stereo not drawn) [Example 431, 2-{4,6-Bis[(^2H3)methyl](^2H)pyrimidin-2-yl}-5-[(3-fluoro-2-pyrimidin-2-ylphenyl)carbonyl]octahydropyrrolo[3,4-c]pyrrole]	18
Cc1cc(C)nc(N2CC3CN(C(=O)c4ccccc4-c4cn(Cc5ccccc5)nn4)CC3C2)n1 (stereo not drawn) [Example 434, 2-{[2-(1-Benzyl-1H-1,2,3-triazol-4-yl)phenyl]carbonyl}-5-(4,6-dimethylpyrimidin-2-yl)octahydropyrrolo[3,4-c]pyrrole]	394
Cc1cc(CO)nc(N2CC3CN(C(=O)c4cccc(F)c4-c4nc(C)no4)CC3C2)n1 (stereo not drawn) [Example 436, {2-[5-{[3-Fluoro-2-(3-methyl-1,2,4-oxadiazol-5-yl)phenyl]carbonyl}hexahydropyrrolo[3,4-c]pyrrol-2(1H)-yl]-6-methylpyrimidin-4-yl}methanol]	21
Cc1ccc(-c2ncccn2)c(C(=O)N2CC3CN(c4nc(C)c(C)c(C)n4)CC3C2)n1 (stereo not drawn) [Example 445, 2-[(6-Methyl-3-pyrimidin-2-ylpyridin-2-yl)carbonyl]-5-(4,5,6-trimethylpyrimidin-2-yl)octahydropyrrolo[3,4-c]pyrrole]	27
CCOc1ncccc1C(=O)N1CC2CN(c3cnc4cc(F)c(F)cc4n3)CC2C1 (stereo not drawn) [Example 447, 2-{5-[(2-Ethoxypyridin-3 yl)carbonyl]hexahydropyrrolo[3,4-c]pyrrol-2(1H)-yl}-6,7-difluoroquinoxaline]	580
CCOc1ncccc1C(=O)N1CC2CN(c3ncc4cc(F)ccc4n3)CC2C1 (stereo not drawn) [Example 448, 2-{5-[(2-Ethoxypyridin-3-yl)carbonyl]hexahydropyrrolo[3,4-c]pyrrol-2(1H)-yl}-6-fluoroquinazoline]	340
O=C(c1cccc(F)c1I)N1CC2CN(c3cnc4cc(F)c(F)cc4n3)CC2C1 (stereo not drawn) [Example 449, 6,7-Difluoro-2-{5-[(3-fluoro-2-iodophenyl)carbonyl]hexahydropyrrolo[3,4-c]pyrrol-2(1H)-yl}quinoxaline]	160
O=C(c1cccc(F)c1-c1ncccc1F)N1CC2CN(c3cnc4cc(F)c(F)cc4n3)CC2C1 (stereo not drawn) [Example 450, 6,7-Difluoro-2-[5-{[3-fluoro-2-(3-fluoropyridin-2-yl)phenyl]carbonyl}hexahydropyrrolo[3,4-c]pyrrol-2(1H)-yl]quinoxaline]	36
O=C(c1cccc(F)c1-c1ncco1)N1CC2CN(c3cnc4cc(F)c(F)cc4n3)CC2C1 (stereo not drawn) [Example 451, 6,7-Difluoro-2-[5-{[3-fluoro-2-(1,3-oxazol-2-yl)phenyl]carbonyl}hexahydropyrrolo[3,4-c]pyrrol-2(1H)-yl]quinoxaline]	29
O=C(c1cccc(F)c1-c1ccccn1)N1CC2CN(c3cnc4cc(F)c(F)cc4n3)CC2C1 (stereo not drawn) [Example 452, 6,7-Difluoro-2-{5-[(3-fluoro-2-pyridin-2-ylphenyl)carbonyl]hexahydropyrrolo[3,4-c]pyrrol-2(1H)-yl}quinoxaline]	26
COc1cccnc1-c1c(F)cccc1C(=O)N1CC2CN(c3cnc4cc(F)c(F)cc4n3)CC2C1 (stereo not drawn) [Example 453, 6,7-Difluoro-2-[5-{[3-fluoro-2-(3-methoxypyridin-2-yl)phenyl]carbonyl}hexahydropyrrolo[3,4-c]pyrrol-2(1H)-yl]quinoxaline]	47
O=C(c1cccc(F)c1-c1cncs1)N1CC2CN(c3cnc4cc(F)c(F)cc4n3)CC2C1 (stereo not drawn) [Example 454, 6,7-Difluoro-2-[5-{[3-fluoro-2-(1,3-thiazol-5-yl)phenyl]carbonyl}hexahydropyrrolo[3,4-c]pyrrol-2(1H)-yl]quinoxaline]	72
O=C(c1cccc(F)c1-c1cscn1)N1CC2CN(c3cnc4cc(F)c(F)cc4n3)CC2C1 (stereo not drawn) [Example 455, 6,7-Difluoro-2-[5-{[3-fluoro-2-(1,3-thiazol-4-yl)phenyl]carbonyl}hexahydropyrrolo[3,4-c]pyrrol-2(1H)-yl]quinoxaline]	32
O=C(c1cccc(F)c1-c1[nH]ncc1F)N1CC2CN(c3cnc4cc(F)c(F)cc4n3)CC2C1 (stereo not drawn) [Example 456, 6,7-Difluoro-2-[5-{[3-fluoro-2-(4-fluoro-1H-pyrazol-5-yl)phenyl]carbonyl}hexahydropyrrolo[3,4-c]pyrrol-2(1H)-yl]quinoxaline]	31
COc1ccc(C(=O)N2CC3CN(c4cnc5cc(F)c(F)cc5n4)CC3C2)c(-c2ncccn2)c1 (stereo not drawn) [Example 459, 6,7-Difluoro-2-{5-[(4-methoxy-2-pyrimidin-2-ylphenyl)carbonyl]hexahydropyrrolo[3,4-c]pyrrol-2(1H)-yl}quinoxaline]	38
Cc1cccc(C(=O)N2CC3CN(c4cnc5cc(F)c(F)cc5n4)CC3C2)c1-n1nccn1 (stereo not drawn) [Example 460, 6,7-Difluoro-2-[5-{[3-methyl-2-(2H-1,2,3-triazol-2-yl)phenyl]carbonyl}hexahydropyrrolo[3,4-c]pyrrol-2(1H)-yl]quinoxaline]	109
Cc1cc(C)nc(N2CC3CN(C(=O)c4c(C)nc5sccn45)CC3C2)n1 (stereo not drawn) [Example 464, 5-{[5-(4,6-Dimethylpyrimidin-2-yl)hexahydropyrrolo[3,4-c]pyrrol-2(1H)-yl]carbonyl}-6-methylimidazo[2,1-b][1,3]thiazole]	3900
